We go through four molecules from PMC10510324, “A Biomimetic C-Terminal Extension Strategy for Photocaging Amidated Neuropeptides” (Journal of the American Chemical Society, 2023).

For series [1] the following is noted: cited from earlier work. The text has this: With the target NPP-caged peptides in hand, we examined their photochemical reactivity in cell-compatible aqueous solution (phosphate-buffered saline, pH 7.2). […] Collectively, they were consumed 25–40 ...
The target of another series is T1, CCK2R (Mus musculus, UniProt P56481).
T1 construct: from tissue; host or cells: acute mouse brain slices, PV interneurons of hippocampal CA1 (PvalbCre; Ai14 mice)
T1 sequence (P56481 1-453): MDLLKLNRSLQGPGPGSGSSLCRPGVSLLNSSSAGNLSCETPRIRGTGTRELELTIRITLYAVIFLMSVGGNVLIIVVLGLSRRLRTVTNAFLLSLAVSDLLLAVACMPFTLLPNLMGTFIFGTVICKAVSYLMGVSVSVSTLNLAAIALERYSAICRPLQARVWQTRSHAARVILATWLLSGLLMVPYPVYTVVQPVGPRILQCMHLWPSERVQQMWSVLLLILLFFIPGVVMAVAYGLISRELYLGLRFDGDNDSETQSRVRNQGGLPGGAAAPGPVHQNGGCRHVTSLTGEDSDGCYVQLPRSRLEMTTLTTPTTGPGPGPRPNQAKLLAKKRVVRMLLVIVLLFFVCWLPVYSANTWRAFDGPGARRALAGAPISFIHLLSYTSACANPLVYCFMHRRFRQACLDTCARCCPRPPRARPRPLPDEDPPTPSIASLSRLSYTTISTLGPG
The experiment in a line: Whole-cell recording of membrane currents, PV interneurons of hippocampal CA1, acute brain slices. Format: cell-based. The conditions noted are these: antagonist 1 μM. The text has this:
Photoactivatable neuropeptides are powerful tools that can drive studies into the mechanisms of endogenous receptor signaling in acute brain slices.[3],[8],[40] To determine if NPP-caged peptides are compatible with such experiments, we established electrophysiological assays for measuring the activation of GRPR, OTR, NK1R, and CCK2R in acute brain slices taken from transgenic mice. These assays involved whole cell recordings of membrane currents from genetically defined neurons located in different brain regions where endogenous receptor activation produces inward, excitatory currents that facilitate action potential firing. Neuropeptide receptor-expressing cells were identified for fluorescence-guided, targeted electrophysiological recordings using transgenic mice that contain transgenes encoding Cre-recombinase under a promotor that is specific to the cell of interest, as well as a Cre-dependent tdTomato fluorescent protein via the Ai14 (Rosa26-lsl-tdTomato) reporter strain. […]
(A) Average inward currents over time after bath application of GRP(14-27)-NPP (3 μM, n = 5 cells from 4 mice) or GRP(14-27) (300 nM, n = 5 from 4 mice), recorded from fluorescently labeled VIP interneurons in layer 1 of the motor cortex. Data are expressed as the mean ± SEM. […] Data are expressed as the mean ± SEM. […] Data are expressed as the mean ± SEM. […] Data are expressed as the mean ± SEM. […]

A further series relates to locus coeruleus. The conditions noted are these: bath applied; cited from earlier work. The source says:
Although extracellular peptidases are known to limit peptide concentrations in the nervous system, how they shape the temporal dynamics of neuropeptide signaling in the brain is poorly understood. For example, rapid proteolysis by peptidases localized near peptide receptors might limit the peak concentration of peptide and thus the degree of receptor activation.

In series [2] the test system is its receptors (GRP receptors). To be noted: cited from earlier work. The source says:
This motif is associated with immature neuropeptides that are likely not intended for receptor binding. […] We therefore reasoned that inclusion of the entire C-terminal amidation sequence might be particularly effective at reducing binding affinity if incorporated into C-terminally caged peptides, especially due to the presence of bulky, positively charged amino acids found in the dibasic motif. To mimic the proneuropept ...

`COc1ccc([N+](=O)[O-])c2c1CCN2C(=O)CC[C@H](N)C(=O)O` [MNI-glutamate, 4-Methoxy-7-nitroindolinyl-caged-L-glutamate]: in series [1], the quantum yield is on record as 0.065.

In the case of `Cc1cccc(NC(=O)N[C@@H]2N=C(c3ccccc3)c3ccccc3N(CC(=O)c3ccccc3C)C2=O)c1` [YM022, (R)-N-[2,3-Dihydro-1-[2-(2-methylphenyl)-2-oxoethyl]-2-oxo-5-phenyl-1H-1,4-benzodiazepin-3-yl]-N'-(3-methylphenyl)-urea], the “block of light-evoked CCK(8S)-NPP current” value on CCK2R is listed as “strongly attenuated”. Take enkephalin: the “increase of potency by peptidase inhibition” value with locus coeruleus was 10 fold.

B1: progastrin-releasing peptide: prohormone of gastrin-releasing peptide, literature finding (protein, UniProt P07492 24-148, looked up)
pro-form: VPLPAGGGTVLTKMYPRGNHWAVGHLMGKKSTGESSSVSERGSLKQQLREYIRWEEAARNLLGLIEAKENRNHQPPQPKALGNQQPSWDSEDSSNFKDVGSKGKVGRLSAPGSQREGRNPQLNQQ
modifications: pro-form
notes: prohormone of gastrin-releasing peptide, literature finding
Consider B1, for which the receptor binding entry in series [2] is “does not bind”.
